# Source: patent US9642922B2, “Caspase-triggered nano-aggregation probes and methods of use” (The Board of Trustees of the Leland Stanford Junior …, priority 2013, dated 2017)
# Numbered stars: 1 amine (or outer) side, 2 acyl side, 3 side chain; on linkers, the order of the positions; unused ones are H or OH. Square brackets hold non-standard residues; d marks the D form. Peptide text beside a SMILES is read from it. * marks the point of attachment. DOTA = O=C(O)CN1CCN(CC(=O)O)CCN(CC(=O)*)CCN(CC(=O)O)CC1; X1 = O=C(C1CSC(c2nc3ccc(N[*:1])cc3s2)=N1)[*:2]; X2 = N#Cc1ccc2cc(OCCCN*)ccc2n1; SEt = CCS*
# Key:
# [1] = molecular target: T1, caspase-9 (Homo sapiens, UniProt P55211); assay: HPLC enzyme specificity assay of C-SNAF, caspase-9; format: biochemical; details: 25 μM probe, 0.735 μg/ml enzyme
# T1 construct: purchased Calbiochem; host or cells: E. coli
# T1 sequence (P55211 1-315 limits assumed): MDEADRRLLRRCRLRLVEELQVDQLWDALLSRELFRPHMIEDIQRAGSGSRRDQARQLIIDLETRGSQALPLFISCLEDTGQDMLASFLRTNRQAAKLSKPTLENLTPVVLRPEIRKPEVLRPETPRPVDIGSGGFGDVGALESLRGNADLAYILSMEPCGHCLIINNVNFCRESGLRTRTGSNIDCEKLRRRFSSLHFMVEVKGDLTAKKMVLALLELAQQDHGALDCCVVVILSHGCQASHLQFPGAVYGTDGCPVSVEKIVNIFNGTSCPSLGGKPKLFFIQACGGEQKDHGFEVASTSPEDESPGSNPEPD
# Method: The specificity of C-SNAF towards other representative cysteine proteases such as caspase-7, caspase-9, cathepsin B, and legumain was examined.
# Caspase (human, recombinant from E. coli) assays were performed for caspase-3 (4.9×10^−3 U; 7.35×10^−4 mg, Sigma), −7 (18.3 U; 7.35×10^−4 mg, Calbiochem), and −9 (0.3 U; 7.35×10^−4 mg, Calbiochem). All caspase assays were conducted in caspase buffer with 50 mM HEPES, 100 mM NaCl, 1 mM EDTA, 10 mM TCEP, 10% glycerol, and 0.1% CHAPS at pH 7.4. Cathepsin B (human liver; 0.27 U; 7.35×10^−4 mg, Calbiochem) and Legumain (human, recombinant from mouse myeloma cell line; >250 pmol/min/μg; 7.35×10^−4 mg, R&D Systems) were conducted in reaction buffer with 50 mM sodium acetate, 50 mM NaCl, 0.5 mM EDTA and 10 mM TCEP at pH 5.5. C-SNAF was diluted in the respective enzyme reaction buffer (25 μM, 1 mL) and remained at room temperature for 10 min, to which was then added the respective enzymes. Reactions were performed at 37° C., and monitored by HPLC hourly. The percentage conversion of the reaction was calculated based on the percentage of peak area of C-SNAF-cycl in the HPLC trace at 675 nm UV detection, which indicated the efficacy of enzyme cleavage of C-SNAF.
# [2] = system: subcutaneous HeLa tumors; assay: In vivo fluorescence imaging of DOX-treated HeLa tumor-bearing mice; design: species or system mouse
# Method: C-SNAF or either of the control probes (5 nmol) was administered intravenously to tumor-bearing mice and whole animal fluorescence was longitudinally monitored using a Maestro fluorescence imager.
# To establish tumors in 6-week-old female nu/nu mice, 2×10^6 HeLa cells suspended in 50 μL of a 50% v/v mixture of Matrigel in supplemented DMEM (10% FBS, 1% penstrep) were injected subcutaneously in the shoulders of the mouse. Tumors were grown until a single aspect was 0.7 to 0.9 cm (approximately 10-15 days), and then treatment consisting of 8 mg/kg DOX or saline was initiated. Treatments were administered intravenously once every 4 d for a total of three times. Total mouse body weight and tumor size (width and length by caliper) was measured every other day. Tumor volumes were calculated assuming ellipsoid shape with the formula (l×w^2)/2.
# Two days following the final treatment, 5 nmol probe in saline was injected intravenously and fluorescence imaging began immediately on a Maestro hyperspectral fluorescent imaging system (PerkinElmer, Mass., USA) using a 635±25 nm excitation filter and a 675 nm long-pass emission filter, with images acquired from 670 to 900 nm. Tissue autofluorescence and Cy5.5 fluorescence were deconvolved, and tumor fluorescence intensity was quantified by region of interest measurement using Nuance v.3.0.1.2 software (Perkin Elmer, Mass., USA).
# [3] = molecular target: T2, cathepsin B (Homo sapiens, UniProt P07858); assay: T1 measurement of probe 15 with cathepsin B; format: biochemical; details: probe 208 μM, protease 50 nM, 1 T
# T2 construct: Cathepsin B (human liver; 0.27 U; 7.35×10^−4 mg, Calbiochem); purchased Calbiochem; host or cells: human liver (tissue-derived)
# Method: The enzyme specificity of probe 15 was studied by measuring the T1 value resulting from probe incubation (208 μM) with any of five relevant subcellular proteases (caspase-3, -7, -9, cathepsin B and legumain) in enzyme buffer. […] The reduced T1 value in solution was inhibited by the caspase inhibitor Z-VAD-fmk (50 μM).
# Cathepsin B (human liver; 0.27 U; 7.35×10^−4 mg, Calbiochem) and Legumain (human, recombinant from mouse myeloma cell line; >250 pmol/min/μg; 7.35×10^−4 mg, R&D Systems) were conducted in reaction buffer with 50 mM sodium acetate, 50 mM NaCl, 0.5 mM EDTA and 10 mM TCEP at pH 5.5. The C-SNAF was diluted in the respective enzyme reaction buffer (25 μM, 1 mL) and remained at room temperature for 10 min, to which was added respective enzymes.
# [4] = system: HeLa cells; assay: ICP-MS cellular uptake of Gd in HeLa cells; format: cell-based, human; details: 250 μM probe, 24 h
# Method: The cellular uptake of Gd was studied by inductively-coupled plasma mass spectrometry (ICP-MS) analysis of the amount of Gd in viable and apoptotic cells after incubation with probe 15 (50-250 μM) for 24 h. […] This uptake enhancement was inhibitable by Z-VAD-fmk (50 μM), confirming the caspase-3-dependent accumulation of probe 15 in apoptotic cells.
# [5] = Water proton r1 relaxivity measurement; format: physicochemical; details: 1 T
# Method: Water proton r1 relaxivities of probe 15 and 1-ctrl (19) before and after caspase-3 incubation were then measured at 1, 1.5 and 3 T. For comparison, the isolated cyclized products 2-I and 2-II were also measured.
# A series of solutions containing contrast agents with five different concentrations (0.05-0.5 mM) in Caspase buffer (pH 7.4) were treated with or without Casp-3 (50 nM) at 37° C. overnight. The solutions were placed in PCR tubes, bundled together, and MR-imaged at 1 T (Bruker Icon, Bruker BioSpin Corp.), […], 1.5 and 3 T (Signa HDx, GE Healthcare) at room temperature.
# The scanning procedure began with a localizer and then consisted of a series of inversion-prepared fast spin echo scans, identical in all aspects (TR 8000 ms (6000 ms for Bruker Icon), TE minimum, field of view 6 cm, slice thickness 2 mm, matrix 128×128, NEX 1) except for the inversion time (TI) that was varied as: 4000, 2400, 1200, 800, 600, 400, 300, 200, 100, and 50 ms. For quantitative data analysis, the acquired MR images were transferred as DICOM images to an offline workstation, and signal intensities were extracted from each of the 5 samples at each of the 10 TI times by manual region of interest (ROI) placement and voxel averaging within the ROI.
# Signal intensity versus TI relationships were fit to the following exponential T1 recovery model by non-linear least squares regression: SI (TI)=S0[1−2*exp(−TI/T1)+exp(−TR/T1)]. Relaxation rates (R1) were determined as 1/T1. Longitudinal relaxivities (r1, units of mM^−1s^−1) were calculated as the slope of R1 vs [Gd] after the determination of true Gd concentration of each sample by the ICP-MS measurement.
# [6] = system: viable HeLa cells; assay: Cell viability study (trypan blue); format: cell-based, human; details: 250 μM for 24 h
# Method: About 2×10^5 HeLa cells in 1 mL DMEM medium were seeded onto 12-well plates. […] After 24 h incubation, the medium was removed, and the cells were trypsinized. The cell number was counted using trypan blue assay. The viability of cell with blank medium was set as 100%, and cells incubating with 1 or Dotarem were normalized to that in blank medium.
Compound,activity of caspase-9 towards probe [1],time of maximum tumor fluorescence after administration ([2]; 5 nmol i.v.),"correlation (r) of maximum tumor fluorescence with maximum tumor size change ([2]; 3×DOX-treated mice, 1 h after probe)","increase in fluorescence signal in DOX-treated tumors compared to saline-treated ([2]; 4 h after 5 nmol probe, 3×DOX)",T1 value after incubation with cathepsin B [3],cellular uptake of Gd in STS-treated versus non-treated cells [4],r1 after activation higher than Dotarem [5],r1 after activation higher than before activation [5],r1 relaxivity upon caspase-3 activation [5],r1 relaxivity without caspase-3 activation [5],r1 after activation higher than before activation ([5]; listed as Gd-based MRI probe),r1 relaxivity upon caspase-3 activation ([5]; listed as Gd-based MRI probe),"cytotoxicity, effect on cell viability [6]"
CCSSC[C@@H](NC(=O)[C@H](CC(=O)O)NC(=O)[C@@H](NC(=O)[C@H](CCC(=O)O)NC(=O)[C@H](CC(=O)O)NC(C)=O)C(C)C)C(=O)N[C@@H](CCCCNC(=O)CCCCCN1C(=CC=CC=CC2=[N+](CC)c3ccc4c(S(=O)(=O)[O-])cc(S(=O)(=O)O)cc4c3C2(C)C)C(C)(C)c2c1ccc1c(S(=O)(=O)O)cc(S(=O)(=O)O)cc21)C(=O)Nc1ccc2nc(C3=N[C@@H](C(=O)NCCCOc4ccc5nc(C#N)ccc5c4)CS3)sc2c1 [C-SNAF],essentially no activity,1 h,−0.9,1.6 fold,,,,,,,,,
CCSSCC(NC(=O)C(CC(=O)O)NC(=O)C(NC(=O)C(CCC(=O)O)NC(=O)C(CC(=O)O)NC(C)=O)C(C)C)C(=O)NC(CCCCNC(=O)CN1CCN(CC(=O)[O-])CCN(CC(=O)[O-])CCN(CC(=O)[O-])CC1)C(=O)Nc1ccc2nc(C3=NC(C(=O)NCCCOc4ccc5nc(C#N)ccc5c4)CS3)sc2c1.[Gd+3] (stereo not shown) [probe 15] (Ac-DEVDC(SEt)K(DOTA)[X1]-X2; configuration not given here),,,,,No reduced T1 value,6.6 fold,about 510%,about 106%,approximately 29.3 mM^−1 s^−1,14.2 mM⁻¹ s⁻¹,106%,29.3 mM⁻¹ s⁻¹,no adverse effects on cell viability
